Values joined by “and” are separate entries in the source; they are usually repeats but may differ in a detail not shown here. Equal values may be shown once.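 Values below derive from 48-hour exposures of cells grown in 96-well plates, with endpoints linearly interpolated between the two concentrations bracketing the appropriate inhibition level. GI50 marks 50% less growth. TGI: total growth inhibition.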
Legend:
Assay in all cases: NCI tumour cell line growth inhibition, 48 h
HCC-2998 colon = tested on: HCC-2998 colon
HS 578T breast = tested on: HS 578T breast
NCI/ADR-RES ovarian = tested on: NCI/ADR-RES ovarian
SF-295 CNS = tested on: SF-295 CNS
SK-MEL-5 melanoma = tested on: SK-MEL-5 melanoma
SK-OV-3 ovarian = tested on: SK-OV-3 ovarian
TK-10 renal = tested on: TK-10 renal
UO-31 renal = tested on: UO-31 renal
CCRF-CEM leukemia = tested on: CCRF-CEM leukemia
MOLT-4 leukemia = tested on: MOLT-4 leukemia

Row | SMILES | GI50 (HCC-2998 colon) [nM] | GI50 (HS 578T breast) [nM] | TGI (HS 578T breast) [µM] | GI50 (NCI/ADR-RES ovarian) [nM] | TGI (NCI/ADR-RES ovarian) | GI50 (SF-295 CNS) [nM] | TGI (SF-295 CNS) [µM] | GI50 (SK-MEL-5 melanoma) [nM] | TGI (SK-MEL-5 melanoma) | GI50 (SK-OV-3 ovarian) [nM] | TGI (SK-OV-3 ovarian) [µM] | GI50 (TK-10 renal) [µM] | TGI (TK-10 renal) [µM] | GI50 (UO-31 renal) | TGI (UO-31 renal) | TGI (CCRF-CEM leukemia) [µM] | TGI (HCC-2998 colon) | TGI (MOLT-4 leukemia) [µM] | GI50 (CCRF-CEM leukemia) [nM] | GI50 (MOLT-4 leukemia) [µM]
1 | COC(=O)Nc1nc2ccc(C(=O)c3ccc(F)cc3)cc2[nH]1 | 173 | 146 | 0.502 | 108 | 0.562 µM | 94 | 0.966 | 242 | > 24.2 µM | 510 | 11.2 | 1.72 | 58.3 | 2290 nM | > 100 µM |  |  |  |  | 
2 | Cc1cc(C)nc(NS(=O)(=O)c2ccc(NC(=O)COC(=O)c3cccc4c(=O)c5ccccc5[nH]c34)cc2)n1 |  |  |  |  |  |  | 95.5 |  | > 100 µM |  | > 100 |  | > 100 |  | > 100 µM | 87.7 | 37.9 µM | 84.8 |  | 
3 | CCN(CC)CC(O)c1cc(-c2ccc(Cl)cc2)nc2c(C)c(Cl)ccc12 (stereo unspecified) | 1770 | 1870 | 4.33 | 1710 | 3.16 µM | 1860 | 3.5 | 1700 | 3.11 µM | 1710 | 3.28 | 1.85 | 3.28 | 549 nM | 2.16 µM | 5.03 | 3.23 µM |  | 2210 | 
4 | Fc1ccc(N=C2C=CC(=Nc3ccc(F)cc3)c3ccccc32)cc1 |  |  |  |  |  |  | > 100 |  | > 100 µM |  | > 100 |  | > 100 |  | > 100 µM | > 100 | > 100 µM | > 100 |  | 
5 | CCCCCCCCCCCCCCCCCC[S+](C)CC (stereo unspecified) | 1230 |  |  | 11400 | 37.2 µM | 1200 | 2.59 |  |  | 1860 | 5.45 |  |  | 1200 nM | 2.62 µM |  | 2.68 µM |  |  | 
6 | Cc1ccc(NC(=O)CC2SC(=Nc3ccc(Cl)cc3)NC2=O)cc1C (stereo unspecified) |  |  |  |  |  |  | > 73.3 |  | 36.6 µM |  | > 66.1 |  | 31.1 |  | 32.6 µM | 11 | 33.6 µM | 5.28 |  | 
7 | COc1cc(CC(=O)O)c([N+](=O)[O-])cc1OC |  |  |  |  |  |  | > 100 |  |  |  | > 100 |  | > 100 |  | > 100 µM | > 100 | > 100 µM | > 100 |  | 
8 | O=C(CC1(O)C(=O)Nc2ccccc21)c1ccccc1O (stereo unspecified) |  |  |  |  |  |  | > 100 |  | > 100 µM |  | > 100 |  | > 100 |  | > 100 µM |  |  | > 100 |  | 
9 | Cc1cc(C)c(/C=N/NS(=O)(=O)c2ccccc2)c(C)c1 |  |  |  |  |  |  | > 100 |  | > 100 µM |  | > 100 |  | > 100 |  | > 100 µM | > 100 | > 100 µM | > 100 |  | 
10 | CC(=O)Nc1ccc(C2=N/C(=C\c3ccc(Cl)cc3)C(=O)O2)cc1 |  |  |  |  |  |  | > 100 |  | > 100 µM |  | > 100 |  | > 100 |  | 73.9 µM | 71.7 | 38.5 µM | 64.1 |  | 
11 | [CH3][Hg]/[N]=C(/N)NC#N |  |  |  |  |  | 18500 | 54.5 | 8900 | 21.1 µM | 16900 | 30.8 | 3.35 | 14.8 | 14700 nM | 28 µM | > 100 |  | > 100 | 3650 | 3.73
12 | COc1ccc2nc3ccccc3c(NCCN(CCCl)CCCl)c2c1 |  |  |  |  |  |  | 10 |  |  |  | 5.05 |  | 5.59 |  | 4.39 µM | 2.39 | 2.73 µM | 0.758 |  | 
13 | CCOC(=O)C(=O)C(C#N)c1ccc(Cl)cc1 (stereo unspecified) |  |  |  |  |  |  | > 100 |  | > 100 µM |  | > 100 |  | > 100 |  | > 100 µM |  |  | > 100 |  | 
14 | O=C(Cc1nc2ccccc2o1)C(=O)Nc1ccc(Cl)cc1Cl |  |  |  |  |  |  | > 100 |  |  |  | > 100 |  |  |  | > 100 µM |  | > 100 µM |  |  | 
15 | COC(=O)C1=CC(=O)[C@@H]2CCCC[C@H]12 |  |  |  |  |  |  |  |  |  |  | > 100 |  | > 100 |  | > 100 µM | > 100 | > 100 µM | > 100 |  | 
16 | N#CCCN(c1ccc(C=O)cc1)S(=O)(=O)c1ccccc1 |  |  |  |  |  |  | > 100 |  | > 100 µM |  | > 100 |  |  |  | > 100 µM |  | > 100 µM | > 100 |  | 
17 | NC(=O)c1csc(-c2ccc(CO)o2)n1 |  |  |  |  | > 100 µM |  | > 100 |  | > 100 µM |  | > 100 |  | > 100 |  | > 100 µM |  |  | > 100 |  | 

Row | SMILES | GI50 (HCC-2998 colon) [nM] | GI50 (HS 578T breast) [nM] | TGI (HS 578T breast) [µM] | GI50 (NCI/ADR-RES ovarian) [nM] | TGI (NCI/ADR-RES ovarian) | GI50 (SF-295 CNS) [nM] | TGI (SF-295 CNS) [µM] | GI50 (SK-MEL-5 melanoma) [nM] | TGI (SK-MEL-5 melanoma) | GI50 (SK-OV-3 ovarian) [nM] | TGI (SK-OV-3 ovarian) [µM] | GI50 (TK-10 renal) [µM] | TGI (TK-10 renal) [µM] | GI50 (UO-31 renal) | TGI (UO-31 renal) | TGI (CCRF-CEM leukemia) [µM] | TGI (HCC-2998 colon) | TGI (MOLT-4 leukemia) [µM] | GI50 (CCRF-CEM leukemia) [nM] | GI50 (MOLT-4 leukemia) [µM]
18 | N#Cc1cccc(C2C(=O)c3ccc(C(=O)c4ccc5c(c4)C(=O)N(c4ccc(Oc6ccc(N7C(=O)c8ccc(C(=O)c9ccc%10c(c9)C(=O)N(c9cccc(C#N)c9)C%10=O)cc8C7=O)cc6)cc4)C5=O)cc3C2=O)c1 (stereo unspecified) |  |  |  |  |  |  | > 100 |  | > 100 µM |  |  |  | > 100 |  | > 100 µM | > 100 | > 100 µM | > 100 |  | 
19 | CN(C)c1ccc(/C=c2/c3cc(O)ccc3n3c2cc(-c2ccccc2)[n+]3C)cc1 |  |  | 1.25 |  | > 100 µM |  | > 100 |  | 2.04 µM | 6130 | > 100 | 4.88 | > 100 | 4450 nM | 31.7 µM | 4.1 | > 100 µM |  |  | 
20 | CCc1ncc(CO)n1Cc1cccc2ccccc12 |  |  | > 100 |  | > 100 µM |  | > 100 |  | > 100 µM |  | > 100 |  | > 100 |  | > 100 µM |  |  |  |  | 
21 | Clc1ccccc1C1SCc2nc3ccccc3n21 (stereo unspecified) |  |  |  |  |  |  | > 100 |  | 33.7 µM |  | 82.7 |  | 71.6 |  |  | > 100 |  | > 100 |  | 
22 | CC#CC#C/C(=C/C=CC(=O)OC)SC |  |  | > 100 |  | > 100 µM |  | > 100 |  | > 100 µM |  | > 100 |  | > 100 |  |  |  | > 100 µM | > 100 |  | 
23 | COC(=O)c1c2c(c(C)[n+]([O-])c1C)C(=O)C(NCc1ccc(O)cc1)=CC2=O | 1460 | 2300 | 6.98 | 2200 | 6.37 µM | 1670 | 3.17 | 1270 | 2.59 µM |  |  |  |  | 1530 nM | 3.06 µM | 4.35 | 3.23 µM |  | 1600 | 
24 | CC[As](CC)SCC1OC(OC(C)=O)C(OC(C)=O)C(OC(C)=O)C1OC(C)=O (stereo unspecified) |  |  |  |  |  |  | 35.7 |  | 28.4 µM |  | 29.3 |  | 30.4 |  | 29.8 µM | 18.4 | 31.7 µM | 48.2 |  | 
25 | CN(C)C1CN(C(=O)c2cc(-c3ccc4ncnc(N5CCc6cc(F)c(Cl)cc65)c4c3)cnc2N)C1 | 710 | 241 | 1.31 | 1710 | > 100 µM | 1180 | > 100 | 1540 | 2.92 µM | 1170 | > 100 | 0.786 | 4.95 | 237 nM | > 100 µM | > 100 | > 100 µM |  | 583 | 
26 | COC1C(=O)CCC2(CO2)C1(O)C1(C)OC1CC=C(C)C (stereo unspecified) |  |  | > 100 |  |  |  | > 100 |  | 83.9 µM |  | > 100 |  | > 100 |  | > 100 µM |  | 46.5 µM | 83.2 |  | 
27 | CC1C(O)=C(O)c2ccccc2N1O (stereo unspecified) |  |  |  |  |  |  | > 100 |  | > 100 µM |  | > 100 |  | > 100 |  | > 100 µM | > 100 | > 100 µM | > 100 |  | 
28 | Cc1ccccc1-n1c(CCl)nc2ccc(Br)cc2c1=O |  |  |  |  |  |  | 58.4 |  | 22.9 µM |  | > 100 |  | 70.1 |  | 28.2 µM | 4.78 | 30.8 µM | 73.5 |  | 
29 | O=C(O)CCC1c2[nH]c3ccccc3c2CCN1Cc1ccccc1 (stereo unspecified) |  |  |  |  |  |  | > 100 |  | > 100 µM |  | > 100 |  | > 100 |  | > 100 µM | > 100 | > 100 µM | > 100 |  | 
30 | O=C(CC(=O)c1cccc([N+](=O)[O-])c1)C(=O)Nc1ccccc1 |  |  |  |  |  |  | > 100 |  | > 100 µM |  |  |  | > 100 |  | > 100 µM | > 100 | > 100 µM | > 100 |  | 
31 | CN(C)CCCCNc1ccc(NCCCCN(C)C)c2c1C(=O)c1c(O)ccc(O)c1C2=O | 1580 |  |  | 1620 | 3.08 µM | 1750 | 3.3 | 13500 | 26.3 µM | 3060 | 9.8 | 13.3 | 26.4 | 1430 nM | 2.93 µM |  | 2.93 µM |  |  | 
32 | Cc1cc(Cl)cc2c1NC(=O)C2(O)C(C(=O)c1ccccc1)c1ccccc1 (stereo unspecified) |  |  |  |  |  |  | > 100 |  | 45.4 µM |  | > 100 |  | > 100 | 67600 nM and 27300 nM | > 100 µM and 48.4 µM | 81.5 | > 100 µM and 60.4 µM | 70.9 |  | 
33 | CCCCCCCCCC[C@H](O)[C@H]1CC[C@@H]([C@@H](O)CC[C@H](O)[C@@H]2CCC(CCCCCCC[C@@H](O)CC3=C[C@H](C)OC3=O)O2)O1 (stereo partly specified) |  |  | 4.86 | 2630 | 4.08 µM and 19.6 µM | 1220 | 15 |  | 3.48 µM and 3.24 µM |  |  | 4.26 | 20.9 | 2590 nM | 2.13 µM and 10.9 µM | 12.3 | 19 µM |  | 2080 | 

Reference: PubChem BioAssay (NCI)
